Results as given in patent publication US20230357219A1, “PREPARATION OF BIARYL RING-LINKED AROMATIC HETEROCYCLIC DERIVATIVE AS IMMUNOMODULATOR AND USE THEREOF” (SHANGHAI LONGWOOD BIOPHARMACEUTICALS CO., LTD., priority 2020, published 2023).

Each compound was assayed against PD-1/PD-L1 (Homo sapiens (Human), UniProt Q9NZQ7) (assay: PD-1/PD-L1 Homogeneous Time-Resolved Fluorescence (HTRF) Binding Assay). Conditions: ~3 nM of PD1, 10 nM of PD-L1; 25° C., PBS buffer (pH 7.4).
Experimental: Assays were performed in standard black 384-well polystyrene plates and a final volume was 20 µL. The inhibitor was first serially diluted with DMSO and added to the wells of the plate, then other reaction components were added. The final concentration of DMSO in the assay was 1%. Assays were performed at 25° C. in PBS buffer (pH 7.4) containing 0.05% Tween-20 and 0.1% BSA. Recombinant human PD-L1 protein (19-238) with a His-tagged at the C-terminus was purchased from AcroBiosystems (PD1-H5229). Recombinant human PD-1 protein (25-167) with an Fc tag at the C-terminus was also purchased from AcroBiosystems (PD1-H5257). The PD-L1 and PD-1 proteins were diluted in assay buffer and then 0.1 µl of the solution was extracted and added to the wells of the plate. Plates were centrifuged and proteins and inhibitors were preincubated for 40 minutes. After incubation, 0.1 µl of HTRF detection buffer containing europium […] labeled anti-human IgG (PerkinElmer-AD0212), Fc-specific and anti-His SureLight®-Allophycocyanin (APC, PerkinElmer-AD0059H) conjugated antibodies was added. After centrifugation, the plates were incubated at 25° C. for 60 minutes. Data was read in a PHERAstar FS plate reader (665 nm/620 nm ratio). Final concentrations in the assay were ~3 nM of PD1, 10 nM of PD-L1, 1 nM of europium anti-human IgG, and 20 nM of anti-His-allophycocyanin. Activity data were fitted using GraphPad Prism 5.0 software to derive IC50 values for inhibitors. The IC50 values of the compounds exemplified in the examples are expressed in the following manner: IC50: + = ≤100 nM; ++ =100 nM-1000 nM; +++ = >1000 nM. The data of the example compounds obtained by PD-1/PD-L1 homogeneous time-resolved fluorescence (HTRF) binding assay described in Example A were provided in Table 1.

PD-1/PD-L1, sequence (Q9NZQ7 19-238): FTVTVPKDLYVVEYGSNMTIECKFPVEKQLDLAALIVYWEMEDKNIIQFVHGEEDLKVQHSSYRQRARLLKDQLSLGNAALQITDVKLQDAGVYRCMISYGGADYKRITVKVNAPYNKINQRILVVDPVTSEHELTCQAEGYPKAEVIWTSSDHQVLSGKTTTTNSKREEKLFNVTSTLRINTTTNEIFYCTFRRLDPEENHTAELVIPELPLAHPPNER

IC50, ≤ 0.1 µM:
COc1nc(O[C@@H]2CCc3c(-c4cccc(Nc5nccc6cc(CN7CC[C@@H](O)C7)cnc56)c4C)cccc32)ccc1CN1CC[C@@H](C(=O)O)C1 [Compound 3], COc1nc(O[C@@H]2CCc3c(-c4cccc(Nc5nccc6cc(CN7CC[C@@H](C(=O)O)C7)cnc56)c4C)cccc32)cnc1CN1CC[C@@H](O)C1 [Compound 4], COc1nc(O[C@@H]2CCc3c(-c4cccc(Nc5nccc6cc(CN7CC[C@@H](O)C7)cnc56)c4C)cccc32)cnc1CN1CC[C@@H](C(=O)O)C1 [Compound 5], COc1nc(O[C@@H]2CCc3c(-c4cccc(-c5nc6cc(CN7CC[C@@H](C(=O)O)C7)cc(C#N)c6o5)c4C)cccc32)ccc1CN1CC[C@@H](O)C1 [Compound 6], COc1nc(O[C@@H]2CCc3c(-c4cccc(Nc5nccc6cc(CN7CC[C@@H](C(=O)O)C7)cnc56)c4C)cccc32)ccc1CN1CC[C@@H](O)C1 [Compound 7], COc1nc(O[C@@H]2CCc3c(-c4cccc(-c5nc6cc(CN7CC[C@@H](C(=O)O)C7)cc(C#N)c6o5)c4C)cccc32)cnc1CN1CC[C@@H](O)C1 [Compound 8], COc1nc(O[C@@H]2CCc3c(-c4cccc(-c5nc6cc(CN7CC[C@@H](O)C7)cc(C#N)c6o5)c4C)cccc32)cnc1CN1CC[C@@H](C(=O)O)C1 [Compound 9], COc1nc(O[C@@H]2CCc3c(-c4cccc(Nc5nccc6cc(CN7CC[C@@H](C(=O)O)C7)cnc56)c4Cl)cccc32)ccc1CN1CC[C@@H](O)C1 [Compound 10], COc1nc(O[C@@H]2CCc3c(-c4cccc(Nc5nccc6cc(CN7CC[C@@H](C(=O)O)C7)cnc56)c4Cl)cccc32)cnc1CN1CC[C@@H](O)C1 [Compound 12], COc1nc(O[C@@H]2CCc3c(-c4cccc(Nc5nccc6cc(CN7CC[C@H](O)C7)cnc56)c4Cl)cccc32)cnc1CN1CC[C@@H](C(=O)O)C1 [Compound 13]
